“Also recorded” adds a separate entry of the source.
Tests used:
[1] = tested on: dog with chronic renal failure; experiment: Clinical score of uremic symptoms in dog with chronic renal failure (Case-H); assay type: in vivo
Protocol: (§1) Testing methods for the patients showing uremia caused by chronic renal failure, employed in Example 4 or later, will now be described. The criteria and evaluation items for the cats and dogs with chronic renal failure are as follows: Diagnosis of uremia and chronic renal failure were performed totally taking clinical findings (including findings of uremia) and the results of the blood test, blood biochemical analysis and urinalysis into consideration. As the clinical findings of uremia, existence and degree of polydipsia and diuresis, dehydration, anorexia, weight loss, vomiting symptom and state of dehydration were observed. Existence of chronic renal failure was judged based on the serum Cre value as generally employed. As reference data for grasping the degree of progress of chronic renal failure, BUN value was also monitored.
Evaluation of degree of improvement of the uremic symptoms was carried out as follows: From the clinical symptoms related to uremia, activity and appetite, which are unlikely to be overlooked and which can be observed universally from before to after the test period, were selected. […] The evaluation was carried out based on the total points (full points were 5 points). Thus, a higher point indicates more improvements in the clinical symptoms. […]

[2] = tested on: rat glomerulonephritis models; details: prophylactic administration before the nephritis-inducing substance; cited from earlier work
healthy cats = experiment: Blood test and blood chemical analysis in healthy cats; assay type: in vivo, cat; details: after 7 days BID at 10-100 μg/kg oral
Protocol: In this study, 3 male cats and 2 female cats, totally 5 Japanese cats, aging 3 to 6 years old were used, which were raised in an animal hospital and for which no abnormalities were observed clinically and by blood test. The subject cats were individually placed in each cage in which each cat was allowed to take water ad libitum, and each cat was fed twice a day after measuring the necessary items. For the purpose of acclimatization, the cats were measured for blood pressure noninvasively twice a day for 2 weeks.
Blood test and blood chemical analysis were carried out as follows: Blood was collected before administration of beraprost sodium and on the next day of the termination of continuous administration for 7 days at each dose (the continuous administration of one test compound for 7 days is hereinafter referred to as “1 series”) at fasting, and analyzed. Inspection items in the blood test were RBC, WBC, PCV, Hb and Plat, and those in the blood chemical analysis were AST, ALT, T.P, BUN, Cre, Na, K and Cl.
In each administration series, the same cat was used in each administration series as the subject cat for the correctness of the evaluation of the test drug. To eliminate the influence of the test drug of the previous series, wash out period of 2 weeks were given after the termination of the respective series. […]

[3] = tested on: cats with chronic renal failure; experiment: Clinical score of uremic symptoms (activity + appetite) in cats with chronic renal failure; assay type: in vivo, cat; details: for clinical total score (full points 5): after one month
Protocol: as §1
This pilot clinical test was performed after obtaining informed consent of the owners of the cats (clients) before the start of the test, wherein the clients received explanations about the fact that beraprost sodium had already been approved as a drug for human chronic artery obstruction and had already been marketed, and about the safety thereof. Further, giving first priority to the benefit of the patients and clients, conventional therapeutic methods were also combined appropriately for the individuals with progressed renal failure. Examples of the concomitant drugs employed include synthetic active carbons such as Covalzin, Kremezin and Nefguard; calcium preparations such as calcium carbonate; formula meals such as k/d and low-protein diets; and infusion solutions. However, in cases where there was a rational reason and consent by the owner was obtained, beraprost sodium alone was administered even to the individual with progressed renal failure. On the other hand, drugs thought to influence on the action of beraprost sodium, such as vasodilators (e.g., enalapril), diuretic (e.g., furosemide), drugs which influence on renal blood flow (e.g., dopamine) and steroids (e.g., prednisolone) were not used.
Administration of beraprost sodium was conducted by orally administering the tablet with a content of 150 μg/tablet (Example 1) twice a day (300 μg/head/day). The administration was conducted every day and continued basically for 6 months, and in cases where the owner desired, the administration was continued even after the test period. The Examples of the present invention include both cases where the dosing period was less than 6 months and more than 6 months.
Evaluation of degree of improvement of the uremic symptoms was carried out as follows: From the clinical symptoms related to uremia, activity and appetite, which are unlikely to be overlooked and which can be observed universally from before to after the test period, were selected. […] The evaluation was carried out based on the total points (full points were 5 points). Thus, a higher point indicates more improvements in the clinical symptoms.

CC#CC[C@@H](C)[C@H](O)/C=C/[C@@H]1[C@H]2c3cccc(CCCC(=O)[O-])c3O[C@H]2C[C@H]1O.[Na+] (mixture of isomers) [beraprost sodium, Sodium rac-(1R,2R,3aS,8bS)-2,3,3a,8b-tetrahydro-2-hydroxy-1-[(E)-(3S,4RS)-3-hydroxy-4-methyloct-1-en-6-ynyl]-1H-cyclopenta[b][1]benzofuran-5-butanoate]
clinical score (full points 5) ([1]; 150 μg/capsule oral twice a day alone, first month, 3 points before): 4 points
uremic symptoms ([1]; after start of beraprost sodium alone): quickly remitted and ameliorated
onset of nephritis (urinary excretion of albumin) [2]: prevented
blood cell count, electrolytes, renal function and liver function (healthy cats): no adverse change was observed
clinical score (full points 5) ([3]; Case-A, male cat 5 y, 150 μg tablet oral BID alone, first month): 4
clinical score (full points 5) ([3]; Case-A, 150 μg oral BID alone, second month, maintained for 6 months): 5
clinical conditions / uremic symptoms at follow up ([3]; Case-A, 6 months after termination (12 months after start)): not observed at all; also recorded: very good
outcome of uremia and renal failure ([3]; Case-A, 6 months of 150 μg oral BID alone): completely cured
differences from normal cats in clinical observations and biochemical markers ([3]; Case-A, end of the 6-month dosing period): no differences
total score of the clinical symptoms (full points 5) ([3]; Case-B, male cat 4 y, 150 μg oral BID alone, 1 month after start, 3 points before): 5 points
clinical symptoms ([3]; Case-B, first to second month): slight amelioration
clinical score (full points 5) ([3]; Case-B, from the fourth month): 5 points
clinical score (full points 5) ([3]; Case-C, female cat 16 y, 150 μg oral BID alone, second week, 2 points before): 4 points
clinical score (full points 5) ([3]; Case-C, after 2.5 months): 5 points
clinical score (full points 5) ([3]; Case-C, after the sixth week): 4 points
clinical score (full points 5) ([3]; Case-C, sixth week): 2 points
clinical total score (full points 5) ([3]; Case-D, male Siamese cat 17 y, 150 μg oral BID alone, 2 points before): 5 points
clinical total score (full points 5) ([3]; Case-E, 150 μg oral BID plus Covalzin 200 mg/BID, calcium preparation, formula meal, infusion, 0 point before): 4 points
dehydration ([3]; Case-E, combination therapy, first about 3 months): completely disappeared
clinical score (full points 5) ([3]; Case-E, combination therapy, for about 3 months): 5 points
clinical score (full points 5) ([3]; Case-E, combination without Covalzin from fourth month, for about 2 months): 3 points
clinical score (full points 5) ([3]; Case-E, combination without Covalzin, 7th to 8th month): 5 points
clinical score (full points 5) ([3]; Case-F, 150 μg oral BID added to insulin, active carbon, calcium carbonate, first month, continues 10 months): 5 points
uremic symptoms ([3]; Case-F, combination therapy, after start of beraprost sodium): disappeared; also recorded: quickly improved
appetite and desire for water ([3]; cats with renal failure, overall): clearly improved
